Experimental data published in patent publication US10765669B2, “Pharmaceutical composition for preventing or treating DYRK-related diseases, containing pyridine-based compound as active ingredient” (KOREA RESEARCH INSTITUTE OF BIOSCIENCE AND BIOTECHNOLOGY, priority 2016, dated 2020).

Assays:
[1] = target: T1, DYRK1A (Homo sapiens, UniProt Q13627); test: Inhibition of Tau protein (Thr212) phosphorylation in 293T cells overexpressing Tau and DYRK1A; assay type: cell-based; conditions: for IC50: 293T cells overexpressing Tau and DYRK1A
T1 construct: expressed in transfected cells; host or cells: 293T

[2] = target: T1, DYRK1A; test: NFAT signaling reporter (NFAT-RE-luciferase), cell-based DYRK1A efficacy evaluation in 293T cells; conditions: for luciferase increase effect / activity level compared with harmine and CX-4945: 10 μM; for luciferase increase effect: 293T cells, NFAT-RE-luciferase reporter, IM + PMA, DYRK1A overexpressed, among 570 candidates; for activity level compared with harmine and CX-4945: same reporter conditions; for EC50 of luciferase increase effect, fold lower than harmine and CX-4945: NFAT reporter, concentration gradient (FIG. 4); for luciferase activity compared with condition without DYRK1A overexpression: treated with 3 μM, concentration gradient, same conditions
Method: With respect to the 570 compounds identified as candidate DYRK1A inhibitors through the virtual screening, a secondary effect evaluation was carried out using NFAT signaling reporter which is the already well-established cell-based DYRK1A effect evaluation system (FIG. 3). NFAT signaling reporter has a very high level of dependence on DYRK1A, and thus is effective in the identifying experiment of the proper candidate DYRK1A inhibitors. DYRK1A is known to regulate calcineurin/Nuclear Factor of Activated T cells (NFAT) signals and play an important role in the stage of human development process. NFATc1 transcription factor is usually present as a protein that is phosphorylated in the cytoplasm when the Ca^2+ concentration of the cells is increased, NFATc1 is dephosphorylated by calcineurin phosphatase which is a Ca^2+-dependent protein, and NFATc1 is moved into the nucleus. NFATc1 which has entered into the nucleus and protein partner NFATn form a transcription complex, and the complex binds to the promoter of the target gene to induce the target gene expression. In contrast, DYRK1A phosphorylates NFATc1 to inhibit the movement of NFATc1 into the nucleus, and results in the inhibition of the expression of the target gene. The DYRK1A-inhibitory effect of the 570 candidates was confirmed through the transcription activity of NFATc1, and for this, a luciferase reporter containing NFAT response element (NFAT-RE) useful to measure the transcription activity of NFATc1 was used. A NFAT-RE-luciferase reporter was over-expressed in 293T cells, and was then treated with Ionomycin (IM) and phorbol 12-myristate 13-acetate (PMA) to increase the intracellular concentration of Ca^2+. As a result, the expression of luciferase was increased sharply. […] If the candidate drug treatment in this condition inhibits DYRK1A, the luciferase will be increased.

[3] = target: C-met kinase (Homo sapiens, UniProt P08581); conditions: existing studies; ATP competitive manner; cited from earlier work
Sequence of C-met kinase (P08581 25-1390): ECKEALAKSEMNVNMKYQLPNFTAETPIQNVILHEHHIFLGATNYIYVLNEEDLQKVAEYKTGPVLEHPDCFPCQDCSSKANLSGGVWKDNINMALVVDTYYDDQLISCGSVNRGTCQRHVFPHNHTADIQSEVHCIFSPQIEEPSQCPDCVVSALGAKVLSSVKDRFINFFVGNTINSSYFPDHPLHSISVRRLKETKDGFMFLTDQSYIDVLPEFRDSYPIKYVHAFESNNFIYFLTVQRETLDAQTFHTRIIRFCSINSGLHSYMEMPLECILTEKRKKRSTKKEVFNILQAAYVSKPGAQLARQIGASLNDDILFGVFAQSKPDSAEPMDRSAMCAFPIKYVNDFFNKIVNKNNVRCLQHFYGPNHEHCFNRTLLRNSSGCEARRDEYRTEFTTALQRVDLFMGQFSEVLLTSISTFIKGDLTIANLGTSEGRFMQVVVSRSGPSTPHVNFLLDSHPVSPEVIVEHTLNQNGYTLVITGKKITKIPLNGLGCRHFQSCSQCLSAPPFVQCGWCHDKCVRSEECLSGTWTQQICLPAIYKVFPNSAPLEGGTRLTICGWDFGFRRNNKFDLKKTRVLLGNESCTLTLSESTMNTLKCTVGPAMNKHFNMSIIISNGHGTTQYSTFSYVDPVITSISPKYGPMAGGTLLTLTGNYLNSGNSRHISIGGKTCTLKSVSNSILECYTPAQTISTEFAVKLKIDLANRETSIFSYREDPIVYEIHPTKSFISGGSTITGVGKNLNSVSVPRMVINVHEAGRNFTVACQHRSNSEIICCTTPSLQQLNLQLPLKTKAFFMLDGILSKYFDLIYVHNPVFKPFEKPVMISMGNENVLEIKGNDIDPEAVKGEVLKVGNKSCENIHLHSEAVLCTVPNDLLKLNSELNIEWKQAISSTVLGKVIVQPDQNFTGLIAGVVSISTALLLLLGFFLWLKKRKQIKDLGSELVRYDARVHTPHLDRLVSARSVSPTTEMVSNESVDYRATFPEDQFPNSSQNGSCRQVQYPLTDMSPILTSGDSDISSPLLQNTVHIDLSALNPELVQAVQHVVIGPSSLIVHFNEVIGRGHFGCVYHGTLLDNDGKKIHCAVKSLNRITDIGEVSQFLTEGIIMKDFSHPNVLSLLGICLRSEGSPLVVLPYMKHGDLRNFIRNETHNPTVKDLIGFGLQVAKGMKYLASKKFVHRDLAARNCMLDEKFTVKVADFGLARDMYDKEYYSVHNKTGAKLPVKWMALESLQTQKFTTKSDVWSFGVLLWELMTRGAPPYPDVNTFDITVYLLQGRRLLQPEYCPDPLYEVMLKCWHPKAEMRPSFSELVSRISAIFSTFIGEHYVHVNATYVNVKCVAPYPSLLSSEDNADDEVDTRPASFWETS

[4] = target: T1, DYRK1A; test: In vitro kinase assay with separated and purified DYRK1A protein; assay type: biochemical
[5] = target: GSK3β (Homo sapiens, UniProt P49841); test: In vitro CMGC kinase assay, GSK3β; assay type: biochemical; conditions: in vitro kinase panel; next to DYRK1A
Sequence of GSK3β (P49841 whole entry, species assumed): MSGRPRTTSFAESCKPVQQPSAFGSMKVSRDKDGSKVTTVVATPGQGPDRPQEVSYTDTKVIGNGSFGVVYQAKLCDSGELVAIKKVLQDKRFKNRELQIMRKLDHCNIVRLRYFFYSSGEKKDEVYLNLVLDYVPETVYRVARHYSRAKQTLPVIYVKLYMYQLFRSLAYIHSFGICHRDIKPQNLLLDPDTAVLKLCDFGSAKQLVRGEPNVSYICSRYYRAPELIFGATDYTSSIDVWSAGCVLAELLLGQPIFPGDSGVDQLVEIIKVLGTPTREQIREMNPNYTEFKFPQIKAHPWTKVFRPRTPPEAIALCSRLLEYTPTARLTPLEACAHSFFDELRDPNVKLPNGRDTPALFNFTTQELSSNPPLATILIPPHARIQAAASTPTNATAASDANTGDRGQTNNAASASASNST

Row | IC50 [1] | luciferase increase effect [2] | activity level compared with harmine and CX-4945 [2] | EC50 of luciferase increase effect, fold lower than harmine and CX-4945 [2] | inhibition at 0.1 µM ([4]; 100 nM concentration, read-out: inhibitory effect on DYRK1A) | rank of inhibitory effect among DYRK family and CMGC kinases ([4]; in vitro kinase panel (FIG. 6)) | IC50 ([4]; predicted from inhibition at 100 nM) | inhibitory effect on GSK3β [5] | inhibitory effect on Tau phosphorylation, times stronger than harmine, INDY and proINDY ([1]; same experimental conditions) | SMILES | luciferase activity compared with condition without DYRK1A overexpression [2] | C-met kinase inhibition [3]
1 | ~3000 nM |  |  |  |  |  |  |  |  | CCN1/C(=C/C(C)=O)Sc2ccc(OC(C)=O)cc21 [proINDY, reference compound] |  | 
2 |  | highest luciferase increase effect | clearly higher | 10 times |  |  |  |  |  | Nc1ncc(-c2cnn(C3CCNCC3)c2)cc1-c1nc2cnccc2o1 [formula 3] | higher than the luciferase activity of the condition that DYRK1A was not overexpressed | inhibitors of the C-met kinase
3 |  | highest luciferase increase effect | clearly higher |  |  |  |  |  |  | Cn1cc(-c2cnc(N)c(-c3nc4cnccc4o3)c2)cn1 [formula 4] |  | 
4 | ~50 nM | highest luciferase increase effect | clearly higher | 10 times | ~95% | strongest inhibitory effect on DYRK1A | ~10 nM | high inhibitory effect | 10-60 times | CC(=O)N1CCC(n2cc(-c3cnc(N)c(-c4nc5cnccc5o4)c3)cn2)CC1 [formula 2] | higher than the luciferase activity of the condition that DYRK1A was not overexpressed | inhibitors of the C-met kinase
